From a melting point compilation (Tetko et al.; mined from patent text by program, amines drawn as free bases though some values may be those of a salt)

melting point [°C] | Compound
145 | Clc1nc(Cl)nc(Nc2ccc(OCc3ccccc3)c(Cl)c2)n1
82 to 84 | CN1CC(CCN2CCN(c3ccc(F)cc3)CC2)OC1=O (stereo unspecified)
157 to 159 | COC(=O)CCNC(=O)c1ccc2c(c1)nc(-c1ccc(C#N)cc1)n2CCC(c1ccccc1)c1ccccc1
174 to 176 | Nc1ccc(S(=O)(=O)Nc2cccc3c(Cl)c[nH]c23)cc1
164 to 167 | CC(=O)Nc1cccc2c1S(=O)(=O)N=C2C1=C(O)C(C(C)(C)C)N(Cc2ccc(F)cc2)C1=O (stereo unspecified)
188 to 189 | O=C(NCc1ccccc1)c1oc(=O)c2ncccc2c1-c1ccccc1
149 to 150 | O=C(O)/C(=C/c1ccc(OCc2ccccc2)cc1OCc1ccccc1)NC(=O)c1ccccc1
235 | O=C(Nc1cc2nc(-c3ccc(C(=O)C4CCCCC4)cc3)[nH]c2cn1)C1CCCCC1
75 to 76 | COC(=O)CC(C(=O)OC)C(=O)c1ccccc1OC (stereo unspecified)
61 to 62 | O=C1NC(=O)C(Nc2ccc(CCNCC(O)COc3cccc4ccccc34)cc2)S1 (stereo unspecified)
119 to 123 | O=C(O)Cc1cc(Cl)ccc1Oc1ccccc1
104 to 107 | O=C(NOCC(O)CN1CCCCC1)c1cccc2ccccc12 (stereo unspecified)
> 300 | CNC(=O)Nc1ccc(-c2c[nH]c(=O)cn2)cc1
92 to 93 | Cc1cccc(Cl)c1OC1CN(C(c2ccccc2)c2ccccc2)C1
162 to 164 | C[Si](C)(C)c1cccc(I)c1C(=O)NC1CC1
66 to 69 | C=CC(O)(C(CCCCOc1ccccc1)n1cncn1)C(C)(C)C (stereo unspecified)
192 to 194 | Cc1c(CC(C)C)sc2nc(C(Cl)(Cl)Cl)[nH]c(=O)c12
114 to 116 | CN(C)C=CC(=O)c1ccncc1
93 to 95 | Cc1cc(F)ccc1NC(=O)OC(C)(C)C
177 to 178 | CCOC(=O)c1c(CN(CC)CC)nc2sc3c(c2c1-c1ccc(Cl)cc1)CCN(C(=O)c1ccccc1)C3
119 to 120 | COc1ccc(COC(=O)n2c(S(=O)Cc3ccc(C)cn3)nc3cscc32)cc1 (stereo unspecified)
105 to 110 | COc1nc(C(=O)O)c(C(=O)NC(C)(C)C)s1
266 to 269 | CS(=O)(=O)c1ccc(-c2nc(C(F)(F)F)nc(NN)c2-c2ccc(Cl)cc2)cc1
120 to 124 | CC12CCC3c4ccc(O)cc4C(=O)C(Sc4ccc(O)cc4)C3C1CCC2O (stereo unspecified)
199 to 201 | CC1(O)c2ccccc2C2=NCCCN21 (stereo unspecified)

melting point [°C] | Compound
284 to 287 | Cn1cc(C(=O)O)c(=O)c2cc(F)c(F)cc21
255 to 259 | O=C(O)c1csc(Nc2ccc(C(F)(F)F)cc2)n1
227 to 230 | Cc1cccc(C(=O)NC(C)C)c1NC(=O)c1cc(C(F)(F)F)nn1-c1ncccc1C(F)(F)F
188 to 190 | Cc1c(C2CCN(Cc3ccccc3)CC2)n[nH]c1-c1ccc(Cl)cc1
146 to 147 | O=C(O)[C@@H]1C[C@@H](c2ccccc2)CN1C(=O)c1ccccc1Br
176 to 178 | C=CCN1C(=O)C2CC(c3ccc(N)cc3)(C2)C1=O
181 | Cc1c(C(=O)O)cnn1-c1ccc(C(F)(F)F)cc1
260 to 262 | COC(=O)c1cc(C(=O)O)c2c(Cl)cc(Cl)cc2n1
197 to 198 | CCOC(=O)c1cnc2nn(CC)cc2c1O
252 to 254 | O=C(O)CNC(=O)c1ccc(-c2ccc3nnn(Cc4ccc5ncccc5c4)c3n2)cc1F
190 to 191 | COCCNC(=O)Nc1ccc([N+](=O)[O-])cc1O
210 | O=C1C=C2CCCCC2N1c1ccc(O)cc1 (stereo unspecified)
30 to 35 | COc1cc(C(=O)N(C)CC(CCN2CCC(C(=O)c3nc4ccccc4n3Cc3ccccn3)CC2)c2ccc(F)cc2)cc(OC)c1OC (stereo unspecified)
81 to 84 | CCOC(=O)C1=C(COCCNC(=O)c2cccnc2)NC(C)=C(C(=O)OC)C1c1ccccc1Cl (stereo unspecified)
91 to 92 | O=C1[C@H]2CCCC[C@H]2C(=O)N1Cc1ccncc1
133 to 134 | CCCn1c(=S)c2[nH]c(C(C)C)nc2n(CCC)c1=O
168 to 170 | O=C1OCCN1CCN1CCN(C2Cc3ccc(Cl)cc3Sc3cc(F)ccc32)CC1 (stereo unspecified)
64 to 66 | CCCCCCCCCCCCCCOC(=O)NO
> 300 | O=c1[nH]c2cc(Cl)c(Cl)c(-c3ccncc3)c2[nH]c1=O
164 to 167 | Cc1nc2nsc(N)c2s1
100 to 102 | COC(=O)[C@H](c1ccccc1Cl)N1CCc2sc(OC(=O)c3ccc([N+](=O)[O-])cc3)cc2C1
220 to 221 | CC(C)Cn1c(CNC(=O)OC(C)(C)C)c(-c2ccc(Cl)cc2)c2cc(O)ccc2c1=O
164 to 165 | COc1cc(OC)nc(NC(=O)NS(=O)(=O)c2nccn2-c2nn(C)cc2Cl)n1
167 to 169 | CC(=O)Nc1ccc(S(=O)(=O)N(Cc2cc(C(C)(C)C)c(O)c(C(C)(C)C)c2)c2cccnc2)cc1
175 | COc1ccc(C[C@@H]2COc3ccc(OCc4ccc5ccccc5n4)cc3[C@H]2O)cc1OC (relative stereo)

melting point [°C] | Compound
170 to 171 | CCOC(=O)c1cn(-c2cnc3ccccc3c2)cn1
138 to 139 | CCS(=O)(=O)c1cc(OC)c(OC)c(C(=O)O)c1
91 to 93 | Cc1nnc(-c2ccc(C)c(Br)c2)o1
126 | CCOC(=O)C(=O)Nc1ccc(C)cc1[N+](=O)[O-]
51 to 53 | Fc1ccc(C2CCC3(CC2)OCCO3)cc1
73.8 to 76 | CC(C)=CCn1c(-c2ccc3c(c2)OCO3)nc2ccccc21
278 to 283 | CC(C)NC1=NS(=O)(=O)c2cc(N)ccc2N1
119 | CC(C)(C)OC(=O)[C@@H](CCCOS(=O)(=O)c1ccc2ccccc2c1)C[C@H](NC(c1ccccc1)(c1ccccc1)c1ccccc1)C(=O)OC(C)(C)C
126 | CCCc1ccc(-c2ncc(C#N)cn2)cc1
104 | CCOC(=O)C1(CCCC(=O)OC(C)(C)C)CCn2c(cc3ccccc32)C1=O (stereo unspecified)
113 to 114 | COc1cc2cc(C)sc2c(Cl)c1Cl
184 to 185 | COc1ccc(C(=O)N2c3ccccc3C(n3c4ccccc4c4ccccc43)=CC2C)cc1OC (stereo unspecified)
166 to 167 | O=C(CCC1CCCC1)Nc1ccc(NC(=O)CCC2CCCC2)c2c1C(=O)c1ccccc1C2=O
62 to 63 | CC(CF)(CF)C1=NC(c2ccc(C(C)(C)C)cc2)CO1 (stereo unspecified)
157 to 158 | CC1CCN(CC#CCN2C(=O)c3cccc4c3N(CC4)c3ccccc32)CC1
166 to 167 | Clc1ccc(C2Cc3cnc(Nc4ccc(CCN5CCOCC5)cc4)nc3-c3ccccc32)cc1Cl (stereo unspecified)
89 to 92 | CCCCCCCCCOc1ccnc(C(=O)O)c1
117 | COC(COc1cccc2c(OCC(OC)OC)cccc12)OC
103 to 108 | CC(=O)Nc1ccc(/C=C\COCCCCCCNCC(O)c2ccc(O)c(CO)c2)cc1 (stereo unspecified)
60 to 62 | COC1CCN2C(=O)c3cccc(N)c3C2C1 (stereo unspecified)
117 to 119 | c1ccc(N2c3ccccc3C3CN(CC45CC6CC(CC(C6)C4)C5)CCC32)cc1 (single isomer, unassigned; (+))
132 to 135 | CCCCN1CCC(O)(c2cccn2Cc2ccccc2F)CC1
190 to 191 | NC1=NN(c2ccc3ccccc3c2)CC1
145 to 146 | CC(C)C[C@H](N[C@H](CC(C)C)C(=O)OCc1ccccc1)C(=O)N[C@@H](Cc1ccccc1)C(N)=O
198 to 199 | Cc1ccc(Sc2cncc3sc(C(N)=O)cc23)cc1

melting point [°C] | Compound
64.5 to 65 | CCCc1ccc(OCCC(C)C)c2c(=O)cc(C(=O)O)oc12
108 to 109 | CNC1CCN(c2ncc(C(F)(F)F)s2)C1=O (stereo unspecified)
93 | O=P(O)(O)OC(Cn1cncn1)C(c1ccc(F)cc1F)n1cncn1 (stereo unspecified)
71 to 72 | CCCCCCC(=O)C=Cc1ccc(OC(C)=O)c(OC(C)=O)c1
266 | COc1cc2nc(N3CCN(c4ccnc(Cl)n4)CC3)nc(N)c2cc1OC
228 to 230 | CCCNC(=O)c1ccc2c(c1)C(=O)NC(C(Cl)(Cl)Cl)O2 (stereo unspecified)
167 to 168 | CN(c1ccccc1)c1nc(Cl)nc2sccc12
230 to 232 | COc1ccc(-c2c3ccccc3cc3sc4ccccc4c23)cc1C#N
166 to 168 | Cc1ccsc1C1CC(=O)CC(=O)C1
134 to 137 | CCCc1c(COc2ccc(C(=O)CCCCCCc3nnn[nH]3)cc2)ccc(C(C)=O)c1O
175 | CS(=O)(=O)c1cc(F)cc2c3c(n(Cc4ccc(Cl)cc4)c12)[C@@H](CC(=O)O)CC3
120 to 123 | CN(C)C(c1ccccc1)c1cc(C(C)(C)C)cc(C(C)(C)C)c1O (stereo unspecified)
123 to 124 | CCOC(=O)/C=C/c1ccc(C=Cc2nc(-c3ccco3)oc2C)cc1
157 | COc1ccc(C(=O)N(C(=O)c2ccc(OC)cc2)c2nc3ccc(N4CCOCC4)cc3c(NCc3ccccc3)c2C#N)cc1
127 to 128 | CNC(=O)c1cc(F)c(Cl)cc1Oc1cccc(OC)c1C
106 to 108 | C=C(Cn1ccnc1)c1cc(F)ccc1OCc1c(Cl)cccc1Cl
184 to 186 | COc1c(C2CCN(CCCCNC(=O)c3ccc(-c4ccc(Cl)cc4)nc3)CC2)ccc2c1CCCC2
146 to 148 | Cc1cc(C)c(O)cn1
133 to 134 | CCOC(=O)C1=Cc2cc(Cl)ccc2NC1C(F)(F)F (stereo unspecified)
205 to 209 | Cc1nn2c3c1c(=O)[nH]c(=O)n3CC=C2c1cc(Cl)ccc1Cl
237 to 238 | CC(C)(C)OC(=O)Nc1cc(-c2nnc(SCc3cccc(F)c3)o2)ccn1
141 to 143 | CC(C)(C)OC(=O)NCCNC(=O)c1ccc(Cl)cc1
246 | Cc1cc(-c2ncn3c(C(F)(F)F)cc(-c4ccc(Cl)c(C)c4)nc23)ccn1
120 to 125 | O=C(N[C@@H](Cc1ccccc1)C(=O)On1nnc2ccccc21)OCc1ccccc1
269 to 270 | CCOC(=O)c1cn(CCF)c2nc(N3CCC(NC(C)=O)C3)c(F)cc2c1=O (stereo unspecified)

Compound | melting point [°C]
CN(C)Cc1c[nH]c2cc(Cl)ccc12 | 130 to 133
